Usually Kd stands for the equilibrium constant for the complex coming apart.

This note sets out measurements from ChEMBL document CHEMBL3991601, “The target landscape of clinical kinase drugs” (Science, 2017).

Structures are written as SMILES. Active and inactive are the calls of the source. Cut-off read from the data, not from the text of the source, for most assays here: actives have a measured Kd and inactives only a lower limit.

Assay [1] addresses Adenylate kinase 2, mitochondrial (Homo sapiens, UniProt P54819).
The target of assay [2] is Serine/threonine-protein kinase B-raf (Homo sapiens, UniProt P15056).
For assay [3], the target named is Cyclin-dependent kinase 12 (Homo sapiens, UniProt Q9NYV4).
The target in assay [4] is Cyclin-dependent kinase 4 (Homo sapiens, UniProt P11802).
The target of assay [5] is Cyclin-dependent kinase 5 (Homo sapiens, UniProt Q00535).
The target in assay [6] is Casein kinase I isoform epsilon (Homo sapiens, UniProt P49674).
Another assay concerns the target Ephrin type-A receptor 4 (Homo sapiens, UniProt P54764).
In assay [7] the target is Serine/threonine-protein kinase/endoribonuclease IRE1 (Homo sapiens, UniProt O75460).
Assay [8] concerns the target Glycogen synthase kinase-3 beta (Homo sapiens, UniProt P49841).
Assay [9] has as its target Insulin-like growth factor 1 receptor (Homo sapiens, UniProt P08069).
Assay [10] deals with Mitogen-activated protein kinase 10 (Homo sapiens, UniProt P53779).
For assay [11], the target named is T1, Mitogen-activated protein kinase 15 (Homo sapiens, UniProt Q8TD08).
T1 sequence (Q8TD08 whole entry): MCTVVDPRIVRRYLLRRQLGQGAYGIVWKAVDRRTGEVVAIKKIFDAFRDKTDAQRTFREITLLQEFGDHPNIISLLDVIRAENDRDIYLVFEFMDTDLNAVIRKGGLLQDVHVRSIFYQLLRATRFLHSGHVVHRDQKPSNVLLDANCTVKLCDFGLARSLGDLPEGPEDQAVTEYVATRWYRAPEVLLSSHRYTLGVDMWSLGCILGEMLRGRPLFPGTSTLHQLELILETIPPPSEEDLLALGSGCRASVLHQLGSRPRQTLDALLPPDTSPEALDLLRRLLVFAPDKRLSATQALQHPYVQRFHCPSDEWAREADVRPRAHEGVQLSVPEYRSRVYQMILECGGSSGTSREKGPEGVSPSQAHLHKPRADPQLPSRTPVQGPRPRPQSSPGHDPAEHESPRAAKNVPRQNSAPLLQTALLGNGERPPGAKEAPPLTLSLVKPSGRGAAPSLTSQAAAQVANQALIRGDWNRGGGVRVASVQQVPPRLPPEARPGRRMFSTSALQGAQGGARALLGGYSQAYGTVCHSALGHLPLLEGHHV

Assay [12] addresses T2, cGMP-dependent protein kinase 1 (Homo sapiens, UniProt Q13976).
T2 sequence (Q13976 whole entry): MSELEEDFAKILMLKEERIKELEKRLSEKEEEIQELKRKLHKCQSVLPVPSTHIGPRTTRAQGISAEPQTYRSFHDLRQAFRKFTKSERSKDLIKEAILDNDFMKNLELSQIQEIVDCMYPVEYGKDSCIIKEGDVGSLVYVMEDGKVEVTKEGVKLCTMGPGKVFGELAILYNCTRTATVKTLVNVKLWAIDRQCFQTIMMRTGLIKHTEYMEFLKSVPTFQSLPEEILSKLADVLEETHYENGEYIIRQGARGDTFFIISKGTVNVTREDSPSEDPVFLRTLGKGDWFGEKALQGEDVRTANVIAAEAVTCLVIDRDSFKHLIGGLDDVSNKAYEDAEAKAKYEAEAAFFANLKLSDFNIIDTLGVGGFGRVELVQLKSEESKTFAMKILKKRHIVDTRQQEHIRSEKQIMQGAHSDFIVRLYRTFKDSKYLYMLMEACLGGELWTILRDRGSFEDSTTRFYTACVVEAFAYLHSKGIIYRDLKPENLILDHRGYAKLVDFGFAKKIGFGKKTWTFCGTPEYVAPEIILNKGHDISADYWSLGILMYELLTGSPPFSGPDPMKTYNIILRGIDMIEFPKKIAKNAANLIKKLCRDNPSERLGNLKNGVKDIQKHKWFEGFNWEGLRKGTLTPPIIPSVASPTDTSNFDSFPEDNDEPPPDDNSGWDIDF

The target of assay [13] is T3, Signal recognition particle receptor subunit alpha (Homo sapiens, UniProt P08240).
T3 sequence (P08240 whole entry): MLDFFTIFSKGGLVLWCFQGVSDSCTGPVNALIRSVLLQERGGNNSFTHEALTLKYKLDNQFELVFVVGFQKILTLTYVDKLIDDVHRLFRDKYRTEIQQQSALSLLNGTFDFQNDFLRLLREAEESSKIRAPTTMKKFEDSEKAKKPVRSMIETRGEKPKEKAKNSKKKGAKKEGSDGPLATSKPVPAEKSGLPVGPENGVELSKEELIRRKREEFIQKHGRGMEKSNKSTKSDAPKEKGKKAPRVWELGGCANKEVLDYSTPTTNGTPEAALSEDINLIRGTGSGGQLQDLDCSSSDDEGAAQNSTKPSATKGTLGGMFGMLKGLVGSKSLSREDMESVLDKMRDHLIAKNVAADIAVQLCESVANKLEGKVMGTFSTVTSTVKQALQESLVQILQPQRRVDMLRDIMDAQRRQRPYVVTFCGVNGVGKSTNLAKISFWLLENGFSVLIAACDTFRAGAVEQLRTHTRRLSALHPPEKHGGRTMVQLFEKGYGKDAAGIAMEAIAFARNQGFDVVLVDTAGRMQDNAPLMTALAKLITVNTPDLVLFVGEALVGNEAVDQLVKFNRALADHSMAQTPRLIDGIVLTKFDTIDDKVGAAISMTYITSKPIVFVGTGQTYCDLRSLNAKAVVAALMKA

Assay [14] deals with T4, EKC/KEOPS complex subunit TP53RK (Homo sapiens, UniProt Q96S44).
T4 sequence (Q96S44 whole entry): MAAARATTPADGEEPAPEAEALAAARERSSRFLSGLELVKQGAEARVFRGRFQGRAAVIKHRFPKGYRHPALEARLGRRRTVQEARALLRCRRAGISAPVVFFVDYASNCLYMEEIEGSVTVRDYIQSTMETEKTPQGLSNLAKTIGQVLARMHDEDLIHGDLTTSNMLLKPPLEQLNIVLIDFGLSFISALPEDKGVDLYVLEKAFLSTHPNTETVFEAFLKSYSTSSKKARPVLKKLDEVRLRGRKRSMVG

The target of assay [15] is Dual specificity protein kinase CLK1 (Homo sapiens, UniProt P49759).
Note: in the data inactive means no Kd found up to 30 µM.

Sequence of Ephrin type-A receptor 4 (P54764 whole entry): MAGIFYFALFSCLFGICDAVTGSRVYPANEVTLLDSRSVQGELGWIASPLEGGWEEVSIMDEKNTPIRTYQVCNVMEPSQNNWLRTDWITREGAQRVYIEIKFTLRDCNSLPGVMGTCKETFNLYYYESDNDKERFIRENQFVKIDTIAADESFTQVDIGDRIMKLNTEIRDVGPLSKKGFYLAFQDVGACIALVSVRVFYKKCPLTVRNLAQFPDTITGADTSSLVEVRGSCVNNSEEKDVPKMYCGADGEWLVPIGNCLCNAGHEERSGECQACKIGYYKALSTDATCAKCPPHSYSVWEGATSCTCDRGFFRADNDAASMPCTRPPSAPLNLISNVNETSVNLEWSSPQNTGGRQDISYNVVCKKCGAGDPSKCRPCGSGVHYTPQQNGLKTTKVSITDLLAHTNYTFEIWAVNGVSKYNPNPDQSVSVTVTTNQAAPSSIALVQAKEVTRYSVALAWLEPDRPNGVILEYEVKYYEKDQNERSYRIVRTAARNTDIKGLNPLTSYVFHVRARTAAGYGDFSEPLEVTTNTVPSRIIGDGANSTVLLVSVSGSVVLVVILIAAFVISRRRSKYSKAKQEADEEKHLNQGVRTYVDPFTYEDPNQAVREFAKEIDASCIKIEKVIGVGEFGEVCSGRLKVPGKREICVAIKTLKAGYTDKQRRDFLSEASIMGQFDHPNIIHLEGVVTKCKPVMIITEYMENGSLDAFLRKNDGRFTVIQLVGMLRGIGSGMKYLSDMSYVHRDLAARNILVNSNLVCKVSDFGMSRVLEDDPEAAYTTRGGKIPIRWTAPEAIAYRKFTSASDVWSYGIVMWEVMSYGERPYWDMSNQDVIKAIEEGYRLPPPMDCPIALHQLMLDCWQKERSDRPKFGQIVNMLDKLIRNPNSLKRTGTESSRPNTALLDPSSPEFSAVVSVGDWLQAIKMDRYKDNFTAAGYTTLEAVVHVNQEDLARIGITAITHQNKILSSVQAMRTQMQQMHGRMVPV
Sequence of Cyclin-dependent kinase 12 (Q9NYV4 whole entry): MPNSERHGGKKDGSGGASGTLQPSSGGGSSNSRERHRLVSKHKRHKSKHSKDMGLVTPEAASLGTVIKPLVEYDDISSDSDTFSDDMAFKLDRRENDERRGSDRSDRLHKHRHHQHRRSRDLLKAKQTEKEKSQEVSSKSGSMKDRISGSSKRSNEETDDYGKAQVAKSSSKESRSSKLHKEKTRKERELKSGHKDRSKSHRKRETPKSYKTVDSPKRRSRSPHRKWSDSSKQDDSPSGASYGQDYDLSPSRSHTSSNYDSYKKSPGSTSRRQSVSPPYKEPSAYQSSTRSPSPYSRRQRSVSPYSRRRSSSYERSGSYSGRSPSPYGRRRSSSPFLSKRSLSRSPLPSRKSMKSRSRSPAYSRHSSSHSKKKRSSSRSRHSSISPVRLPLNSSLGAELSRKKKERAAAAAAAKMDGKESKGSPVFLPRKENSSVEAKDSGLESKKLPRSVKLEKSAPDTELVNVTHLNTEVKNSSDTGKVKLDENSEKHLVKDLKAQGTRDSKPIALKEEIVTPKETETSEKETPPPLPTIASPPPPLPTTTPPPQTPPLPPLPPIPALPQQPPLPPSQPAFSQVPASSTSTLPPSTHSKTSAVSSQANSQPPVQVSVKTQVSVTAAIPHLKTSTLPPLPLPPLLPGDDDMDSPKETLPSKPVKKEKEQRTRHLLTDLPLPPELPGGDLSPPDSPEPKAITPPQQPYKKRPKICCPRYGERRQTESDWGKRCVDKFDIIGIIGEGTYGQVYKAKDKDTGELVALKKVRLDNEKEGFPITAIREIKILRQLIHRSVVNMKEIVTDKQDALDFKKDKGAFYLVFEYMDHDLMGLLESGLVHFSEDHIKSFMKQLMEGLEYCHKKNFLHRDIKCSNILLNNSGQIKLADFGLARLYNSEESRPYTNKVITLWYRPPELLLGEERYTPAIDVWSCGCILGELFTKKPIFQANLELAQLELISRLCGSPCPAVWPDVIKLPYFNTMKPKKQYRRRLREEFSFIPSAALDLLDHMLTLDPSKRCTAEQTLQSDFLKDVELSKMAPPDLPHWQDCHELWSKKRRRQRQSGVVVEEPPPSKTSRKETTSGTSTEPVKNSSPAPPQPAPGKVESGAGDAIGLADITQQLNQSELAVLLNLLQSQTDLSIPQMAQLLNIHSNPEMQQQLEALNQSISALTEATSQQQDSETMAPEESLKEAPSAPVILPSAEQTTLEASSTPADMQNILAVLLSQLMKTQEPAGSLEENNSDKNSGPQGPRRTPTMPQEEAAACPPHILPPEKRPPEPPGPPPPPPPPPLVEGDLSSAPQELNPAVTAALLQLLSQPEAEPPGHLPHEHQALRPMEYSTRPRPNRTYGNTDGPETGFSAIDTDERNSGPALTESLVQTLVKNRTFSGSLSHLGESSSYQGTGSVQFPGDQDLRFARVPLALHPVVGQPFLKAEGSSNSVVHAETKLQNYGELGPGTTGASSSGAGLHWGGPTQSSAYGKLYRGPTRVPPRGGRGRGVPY
Sequence of Casein kinase I isoform epsilon (P49674 whole entry, canonical isoform): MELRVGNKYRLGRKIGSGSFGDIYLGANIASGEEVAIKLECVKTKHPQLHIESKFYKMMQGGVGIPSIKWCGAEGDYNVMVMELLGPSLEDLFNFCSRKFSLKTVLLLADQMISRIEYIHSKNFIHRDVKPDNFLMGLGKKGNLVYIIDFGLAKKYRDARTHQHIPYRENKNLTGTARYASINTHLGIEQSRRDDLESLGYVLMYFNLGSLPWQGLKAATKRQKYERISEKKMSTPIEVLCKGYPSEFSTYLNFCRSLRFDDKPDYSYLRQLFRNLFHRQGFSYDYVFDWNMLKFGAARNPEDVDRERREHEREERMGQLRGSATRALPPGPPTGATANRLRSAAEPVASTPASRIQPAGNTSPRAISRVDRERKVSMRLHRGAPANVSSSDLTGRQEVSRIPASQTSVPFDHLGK
Sequence of Glycogen synthase kinase-3 beta (P49841 whole entry): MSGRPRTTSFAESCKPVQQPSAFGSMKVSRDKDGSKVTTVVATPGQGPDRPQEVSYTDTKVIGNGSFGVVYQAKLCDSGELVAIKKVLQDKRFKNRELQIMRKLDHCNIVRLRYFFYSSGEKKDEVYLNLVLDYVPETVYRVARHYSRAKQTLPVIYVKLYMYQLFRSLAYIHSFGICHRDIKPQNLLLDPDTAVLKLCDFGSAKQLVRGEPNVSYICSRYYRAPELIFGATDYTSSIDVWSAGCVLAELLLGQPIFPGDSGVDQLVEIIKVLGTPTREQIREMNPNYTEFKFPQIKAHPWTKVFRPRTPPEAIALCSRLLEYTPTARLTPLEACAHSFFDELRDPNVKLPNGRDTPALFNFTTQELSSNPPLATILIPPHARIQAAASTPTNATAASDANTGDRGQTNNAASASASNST
Sequence of Insulin-like growth factor 1 receptor (P08069 31-736 limits assumed): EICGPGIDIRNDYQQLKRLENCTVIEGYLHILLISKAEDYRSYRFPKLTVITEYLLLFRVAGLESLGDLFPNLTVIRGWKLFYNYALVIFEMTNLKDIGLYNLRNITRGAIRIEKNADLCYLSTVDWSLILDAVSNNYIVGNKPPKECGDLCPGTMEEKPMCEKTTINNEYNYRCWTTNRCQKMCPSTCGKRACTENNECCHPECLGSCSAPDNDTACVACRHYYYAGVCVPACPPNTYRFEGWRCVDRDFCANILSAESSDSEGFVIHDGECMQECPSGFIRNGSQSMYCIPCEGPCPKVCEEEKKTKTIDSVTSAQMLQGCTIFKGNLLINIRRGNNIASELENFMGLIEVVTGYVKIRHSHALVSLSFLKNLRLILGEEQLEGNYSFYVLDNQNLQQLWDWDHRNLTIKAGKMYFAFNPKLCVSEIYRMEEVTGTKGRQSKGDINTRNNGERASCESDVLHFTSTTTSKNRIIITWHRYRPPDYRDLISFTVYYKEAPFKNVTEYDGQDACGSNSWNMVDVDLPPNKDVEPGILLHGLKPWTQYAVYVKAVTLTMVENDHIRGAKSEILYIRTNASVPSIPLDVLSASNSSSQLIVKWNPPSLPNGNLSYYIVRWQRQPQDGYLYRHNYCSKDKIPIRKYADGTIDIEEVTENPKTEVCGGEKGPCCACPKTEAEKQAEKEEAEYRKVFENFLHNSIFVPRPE
Sequence of Insulin-like growth factor 1 receptor (P08069 741-1367 limits assumed): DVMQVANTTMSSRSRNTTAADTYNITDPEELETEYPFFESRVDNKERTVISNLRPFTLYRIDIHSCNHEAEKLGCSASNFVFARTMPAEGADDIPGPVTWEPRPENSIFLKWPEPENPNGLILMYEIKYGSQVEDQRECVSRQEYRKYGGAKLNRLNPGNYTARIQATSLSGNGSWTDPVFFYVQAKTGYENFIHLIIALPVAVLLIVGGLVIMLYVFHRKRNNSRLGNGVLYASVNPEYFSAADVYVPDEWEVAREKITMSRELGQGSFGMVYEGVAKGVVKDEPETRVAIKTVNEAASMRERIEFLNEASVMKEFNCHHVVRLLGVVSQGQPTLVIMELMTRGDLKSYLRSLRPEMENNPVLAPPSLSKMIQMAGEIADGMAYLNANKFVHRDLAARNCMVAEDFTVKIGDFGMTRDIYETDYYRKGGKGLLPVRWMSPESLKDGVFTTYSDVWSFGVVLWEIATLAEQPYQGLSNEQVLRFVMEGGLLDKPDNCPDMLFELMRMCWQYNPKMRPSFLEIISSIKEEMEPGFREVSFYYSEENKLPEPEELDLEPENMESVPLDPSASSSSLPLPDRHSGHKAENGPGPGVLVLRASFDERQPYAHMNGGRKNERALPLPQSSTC
Sequence of Cyclin-dependent kinase 5 (Q00535 whole entry, canonical isoform): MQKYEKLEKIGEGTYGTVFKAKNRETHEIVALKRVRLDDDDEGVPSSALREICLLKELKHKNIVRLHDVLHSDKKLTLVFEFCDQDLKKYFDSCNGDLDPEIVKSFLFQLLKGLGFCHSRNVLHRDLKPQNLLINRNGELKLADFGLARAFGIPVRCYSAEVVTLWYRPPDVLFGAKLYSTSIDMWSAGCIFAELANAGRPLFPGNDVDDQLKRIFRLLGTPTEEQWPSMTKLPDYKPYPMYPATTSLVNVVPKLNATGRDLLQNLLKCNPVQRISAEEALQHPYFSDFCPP

As to `C[C@@H](Oc1cc(C(=O)Nc2ccc(C(=O)N3CCN(C)CC3)cc2)nnc1N)c1c(Cl)ccc(F)c1Cl`, the Kd in assay [1], in assay [2], in assay [3], in assay [4], in assay [5] and in assay [6] was > 30 µM (inactive) each time. The Kd (on Ephrin type-A receptor 4; in assay [7]; in assay [8]; in assay [9]; in assay [10]; in [11]) was > 30 µM (inactive) throughout. For the same compound, the Kd in assay [12], in assay [13] and in [14] was > 30 µM (inactive) in each case.

Consider `COc1cc([C@@H]2c3cc4c(cc3[C@H](O)[C@H]3COC(=O)[C@@H]23)OCO4)cc(OC)c1OC` [AXL-1717], for which the Kd in [1], in assay [2], in [3], in assay [4], in [5] and in assay [6] was > 30 µM (inactive) in each case. In addition, the Kd (at Ephrin type-A receptor 4; in assay [7]; in assay [8]; in assay [9]; in assay [10]; in [11]) was > 30 µM (inactive) in each case. Moreover, the Kd in assay [12], in assay [13] and in assay [14] was > 30 µM (inactive) in each case.

As for `Cc1nc2cc(-n3ncc(C(=O)c4cc5ccccc5[nH]4)c3N)ccc2[nH]1` [FGFR INHIBITOR DEBIO 1347], the Kd in assay [1], in assay [2], in [3], in assay [4], in assay [5] and in assay [6] was > 30 µM (inactive) in each case. For the same compound, the Kd (at Ephrin type-A receptor 4; in [7]; in [8]; in assay [9]; in [10]; in assay [11]) was > 30 µM (inactive) each time. Further, the Kd in [12], in assay [13] and in [14] was > 30 µM (inactive) each time.

For `O=C(Nc1nc2cccc(-c3ccc(CN4CCS(=O)(=O)CC4)cc3)n2n1)C1CC1` [FILGOTINIB], the Kd in [1], in assay [2], in [3], in assay [4], in assay [5] and in [6] was > 30 µM (inactive) each time. Moreover, the Kd on Ephrin type-A receptor 4 was > 30 µM (inactive); in assay [7] it was > 30 µM (inactive); in assay [8] it was > 30 µM (inactive); in assay [9] it was > 30 µM (inactive); in assay [10], 2.14 µM (active); in assay [11] it was > 30 µM (inactive). Also, the Kd in assay [12], in [13] and in assay [14] was > 30 µM (inactive) in each case.

`CN(C[C@@H]1COCCO1)S(=O)(=O)Nc1ccc2ccc3ncc(-c4cnn(C)c4)cc3c(=O)c2c1` [MK-2461]: the Kd in assay [1], in [2], in assay [3], in assay [4], in assay [5] and in [6] was > 30 µM (inactive) in each case. The Kd at Ephrin type-A receptor 4 was > 30 µM (inactive); in assay [7], > 30 µM (inactive); in [8] it was > 30 µM (inactive); in assay [9], > 30 µM (inactive); in [10], 4.7 µM (active); in [11] it was > 30 µM (inactive). Further, the Kd in assay [12], in assay [13] and in [14] was > 30 µM (inactive) in each case.

On to `Cc1[nH]c(/C=C2\C(=O)Nc3ccccc32)c(C)c1CCC(=O)O` [ORANTINIB], for which the Kd (in [1]; in assay [2]; in assay [3]; in assay [4]; in assay [15]; on Ephrin type-A receptor 4) was > 30 µM (inactive) in each case. Besides, the Kd in assay [11], in assay [13] and in assay [14] was > 30 µM (inactive) throughout.

On to `CC(=O)NCC(=O)N1[C@@H]2CC[C@H]1c1ccc(Nc3ncc(C(F)(F)F)c(NC4CCC4)n3)cc12` [PF-03814735], for which the Kd (in [1]; in assay [2]; in [3]; in assay [4]; in [15]; on Ephrin type-A receptor 4) was > 30 µM (inactive) throughout. In addition, the Kd in assay [7] is 3.64 µM (active); in assay [10], > 30 µM (inactive); in assay [11], > 30 µM (inactive); in [13], > 30 µM (inactive); in assay [14], > 30 µM (inactive).

Turning to `Cn1ncc(Cl)c1-c1cc(C(=O)N[C@H](CN)Cc2ccc(F)c(F)c2)oc1Cl` [UPROSERTIB], the Kd in assay [1], in assay [2], in assay [3], in assay [4], in assay [5] and in assay [6] was > 30 µM (inactive) throughout. In addition, the Kd (at Ephrin type-A receptor 4; in assay [7]; in assay [8]; in assay [9]; in assay [10]; in assay [11]) was > 30 µM (inactive) throughout. Further, the Kd in assay [12], in [13] and in assay [14] was > 30 µM (inactive) in each case.
